The results in this text go back to ChEMBL document CHEMBL4732235, “Design, synthesis, and evaluation of transition-state analogs as inhibitors of the bacterial quorum sensing autoinducer synthase CepI” (Bioorg Med Chem Lett, 2021).

Assay [1] in a line: Inhibition of Burkholderia cenocepacia synthase CepI assessed as liberation of ACP thiol using SAM as substrate by DCPIP method.
The subject of assay [2] is Burkholderia cenocepacia. Description: Inhibition of Burkholderia cenocepacia synthase CepI assessed as liberation of ACP thiol using SAM as substrate at 100 uM by DCPIP method.
Assay [3] relates to Burkholderia cenocepacia. Description: Binding affinity to Burkholderia cenocepacia synthase CepI assessed as stabilization of protein in presence of trypsin at 50 uM by standard colorimetric trypsin assay.

Active and inactive are the calls of the source. No cut-off for these calls is given here.

Consider `CCCCCCCC(=O)N[C@@H]1C[C@H](CSC[C@H]2O[C@@H](n3cnc4c(N)ncnc43)[C@H](O)[C@@H]2O)OC1=O`, for which the IC50 in assay [1] was 100 µM. In addition, in the assay with Burkholderia cenocepacia [2], the inhibition entry is “Active”.
With `CCCCCCCC(=O)N[C@H]1C[C@@H](CSC[C@H]2O[C@@H](n3cnc4c(N)ncnc43)[C@H](O)[C@@H]2O)OC1=O`, the IC50 in assay [1] was found to be 1 µM. Besides, the inhibition result with Burkholderia cenocepacia [2] is “Active”. The result with Burkholderia cenocepacia [3] was Active.
